These results are taken from patent publication US20240409585A1, “MACROCYCLIC IMMUNOMODULATORS” (priority 2021, published 2024).

For test [1], the target named is T1, PE-labeled human PD-L1-Ig binding to Jurkat cell line over-expressing human PD-1 (Jurkat-PD-1) (Homo sapiens, UniProt Q15116).
T1 construct: expressed in transfected cells; host or cells: Jurkat
Nature of the test: Jurkat-PD-1 Cell Binding High-Content Screening Assay (CBA): Method 1. To be noted: Jurkat-PD-1 cells, PE-labeled PD-L1-Ig.

The target in test [2] is T1, PE-labeled human PD-L1-Ig binding to Jurkat cell line over-expressing human PD-1 (Jurkat-PD-1). Nature of the test: Jurkat-PD-1 Cell Binding High-Content Screening Assay (CBA): Method 2 (presence and absence of tween-20). To be noted: Jurkat-PD-1 cells, PE-labeled PD-L1-Ig 20 nM, presence or absence of tween-20 not given. The essentials:
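Compounds incubated with Jurkat cells overexpressing human PD-1 for 2 h at 37° C, tested with and without tween-20 to flag aggregation. PE-labeled human PD-L1-Ig (20 nM final) added in DMEM/10% FCS; binding read by high-content imaging.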

Setting [3] is: head μM, read-out: CBA Method 2 μM.

Numbered stars: 1 amine (or outer) side, 2 acyl side, 3 side chain; on linkers, the order of the positions; unused ones are H or OH. Bridge positions count the residues as written; N and C are the ends. Square brackets hold non-standard residues; d marks the D form. Peptide text beside a SMILES is read from it. * marks the point of attachment. Bip(4'-COOH) = N[C@@H](Cc1ccc(-c2ccc(C(=O)O)cc2)cc1)C(=O)O; Bip(4'-NHAc) = CC(=O)Nc1ccc(-c2ccc(C[C@H](N)C(=O)O)cc2)cc1; X13 = O=C(CCc1ccccc1)NCc1cccc(C[C@H](N[*:1])C(=O)[*:2])c1; Phe(3-OCH2COOH) = N[C@@H](Cc1cccc(OCC(=O)O)c1)C(=O)O; Phe(3-CF3) = N[C@@H](Cc1cccc(C(F)(F)F)c1)C(=O)O; Ala(morpholin-4-yl) = N[C@@H](CN1CCOCC1)C(=O)O; Phe(4-COOH) = N[C@@H](Cc1ccc(C(=O)O)cc1)C(=O)O; Bip = N[C@@H](Cc1ccc(-c2ccccc2)cc1)C(=O)O; Phe(3-NH2) = Nc1cccc(C[C@H](N)C(=O)O)c1; Phe(3-F) = N[C@@H](Cc1cccc(F)c1)C(=O)O; Phe(3-Me) = Cc1cccc(C[C@H](N)C(=O)O)c1; 2Pal = N[C@@H](Cc1ccccn1)C(=O)O; Cha = N[C@@H](CC1CCCCC1)C(=O)O; Carboxymethyl = O=C(O)C*; NMeA = CN[C@@H](C)C(=O)O; Nle = CCCC[C@H](N)C(=O)O; Orn = NCCC[C@H](N)C(=O)O; Dab = NCC[C@H](N)C(=O)O

T1 sequence (Q15116 25-288): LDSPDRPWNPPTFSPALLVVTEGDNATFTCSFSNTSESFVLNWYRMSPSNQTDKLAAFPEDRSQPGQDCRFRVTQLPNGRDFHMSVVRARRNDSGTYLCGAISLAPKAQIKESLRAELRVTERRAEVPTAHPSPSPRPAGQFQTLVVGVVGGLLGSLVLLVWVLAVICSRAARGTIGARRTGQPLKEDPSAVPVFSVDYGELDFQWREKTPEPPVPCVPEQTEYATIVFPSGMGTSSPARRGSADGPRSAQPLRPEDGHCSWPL

As to `Cc1cccc(C[C@@H]2NC(=O)[C@H](CC(=O)O)NC(=O)[C@H](Cc3ccc(OCC(=O)O)cc3)NC(=O)[C@H](CN3CCOCC3)NC(=O)CSC[C@@H](C(=O)N[C@@H](CCN)C(N)=O)NC(=O)[C@H](CCCN)NC(=O)[C@H](C(C)C)NC(=O)[C@H](Cc3cccc(N)c3)NC(=O)[C@H](CCN)NC(=O)[C@@H](CC(C)C)NC(=O)[C@H](C)N(C)C(=O)[C@H](CCC(N)=O)NC(=O)[C@H](Cc3ccc(-c4ccccc4)cc3)NC(=O)[C@H](Cc3ccc(C(=O)O)cc3)NC2=O)c1` [Example 5040] ({CH2CO}-[Ala(morpholin-4-yl)]Y(Carboxymethyl)D[Phe(3-Me)][Phe(4-COOH)][Bip]Q[NMeA][dL][Dab][Phe(3-NH2)]V[Orn]C[Dab]-NH2; thioether N-14), the IC50 was found to be 0.0159 µM in test [1] (μM, read-out: CBA Method 1 μM) and 0.0146 µM in test [2] (setting [3]).
As for `CC(C)C[C@H]1NC(=O)[C@H](C)N(C)C(=O)[C@H](CCCN)NC(=O)[C@H](Cc2ccc(-c3ccccc3)cc2)NC(=O)[C@H](Cc2ccc(-c3ccc(C(=O)O)cc3)cc2)NC(=O)[C@H](Cc2cccc(C(F)(F)F)c2)NC(=O)[C@H](CC(=O)O)NC(=O)[C@H](Cc2ccc(-c3ccc(C(=O)O)cc3)cc2)NC(=O)[C@H](Cc2ccc(OCC(=O)O)cc2)NC(=O)CSC[C@@H](C(=O)N[C@@H](CCN)C(N)=O)NC(=O)[C@H](CC(N)=O)NC(=O)[C@H](C(C)C)NC(=O)[C@H](CC2CCCCC2)NC(=O)[C@H](CCN)NC1=O` [Example 5086] ({CH2CO}-Y(Carboxymethyl)[Bip(4'-COOH)]D[Phe(3-CF3)][Bip(4'-COOH)][Bip][Orn][NMeA][dL][Dab][Cha]VNC[Dab]-NH2; thioether N-14), the IC50 turned out to be 0.0055 µM in test [1] (nM, read-out: CBA Method 1) and 0.0099 µM in test [2] (nM, read-out: CBA Method 2).
On to `CC(=O)Nc1ccc(-c2ccc(C[C@@H]3NC(=O)[C@H](Cc4cccc(C)c4)NC(=O)[C@H](CC(=O)O)NC(=O)[C@H](Cc4ccc(C(=O)O)cc4)NC(=O)[C@H](CN4CCOCC4)NC(=O)CSC[C@@H](C(=O)N[C@@H](CCN)C(N)=O)NC(=O)[C@H](CCCN)NC(=O)[C@H](C(C)C)NC(=O)[C@H](Cc4cccc(F)c4)NC(=O)[C@H](CCN)NC(=O)[C@@H](CC(C)C)NC(=O)[C@H](C)N(C)C(=O)[C@H](CCC(N)=O)NC(=O)[C@H](Cc4ccc(-c5ccccc5)cc4)NC3=O)cc2)cc1` [Example 5049] ({CH2CO}-[Ala(morpholin-4-yl)][Phe(4-COOH)]D[Phe(3-Me)][Bip(4'-NHAc)][Bip]Q[NMeA][dL][Dab][Phe(3-F)]V[Orn]C[Dab]-NH2; thioether N-14), for which the IC50 turned out to be 0.0083 µM in test [1] (μM, read-out: CBA Method 1 μM) and 0.007 µM in test [2] (setting [3]).
The like results for `CC(=O)Nc1ccc(-c2ccc(C[C@@H]3NC(=O)[C@H](Cc4cccc(C(F)(F)F)c4)NC(=O)[C@H](CC(=O)O)NC(=O)[C@H](Cc4ccc(C(=O)O)cc4)NC(=O)[C@H](CN4CCOCC4)NC(=O)CSC[C@@H](C(=O)N[C@@H](CCN)C(N)=O)NC(=O)[C@H](CCCN)NC(=O)[C@H](C(C)C)NC(=O)[C@H](CC4CCCCC4)NC(=O)[C@H](CCN)NC(=O)[C@@H](CC(C)C)NC(=O)[C@H](C)N(C)C(=O)[C@H](CCC(N)=O)NC(=O)[C@H](Cc4ccc(-c5ccccc5)cc4)NC3=O)cc2)cc1` [Example 5047] ({CH2CO}-[Ala(morpholin-4-yl)][Phe(4-COOH)]D[Phe(3-CF3)][Bip(4'-NHAc)][Bip]Q[NMeA][dL][Dab][Cha]V[Orn]C[Dab]-NH2; thioether N-14) were, in that order, 0.0052 µM and 0.0041 µM.
Turning to `Cc1cccc(C[C@@H]2NC(=O)[C@H](CC(=O)O)NC(=O)[C@H](Cc3ccc(OCC(=O)O)cc3)NC(=O)[C@H](Cc3cccc(CNC(=O)CCc4ccccc4)c3)NC(=O)CSC[C@@H](C(=O)N[C@@H](CCN)C(N)=O)NC(=O)[C@H](CCCN)NC(=O)[C@H](C(C)C)NC(=O)[C@H](CC3CCCCC3)NC(=O)[C@H](CCN)NC(=O)[C@@H](CC(C)C)NC(=O)[C@H](C)N(C)C(=O)[C@H](CCC(N)=O)NC(=O)[C@H](Cc3ccc(-c4ccccc4)cc3)NC(=O)[C@H](Cc3ccc(C(=O)O)cc3)NC2=O)c1` [Example 5034] ({CH2CO}-[X13]Y(Carboxymethyl)D[Phe(3-Me)][Phe(4-COOH)][Bip]Q[NMeA][dL][Dab][Cha]V[Orn]C[Dab]-NH2; thioether N-14), the IC50 in test [1] (μM, read-out: CBA Method 1 μM) turned out to be 0.0051 µM; in test [2] (setting [3]), 0.0031 µM.
The like results for `CCCC[C@@H]1NC(=O)CSC[C@@H](C(=O)N[C@@H](CCN)C(N)=O)NC(=O)[C@H](CCCN)NC(=O)[C@H](C(C)C)NC(=O)[C@H](CC2CCCCC2)NC(=O)[C@H](CCN)NC(=O)[C@@H](CC(C)C)NC(=O)[C@H](C)N(C)C(=O)[C@H](CCCN)NC(=O)[C@H](Cc2ccc(-c3ccccc3)cc2)NC(=O)[C@H](Cc2ccc(-c3ccc(C(=O)O)cc3)cc2)NC(=O)[C@H](Cc2cccc(C(F)(F)F)c2)NC(=O)[C@H](CC(=O)O)NC(=O)[C@H](Cc2ccc(-c3ccc(C(=O)O)cc3)cc2)NC1=O` [Example 5088] ({CH2CO}-[Nle][Bip(4'-COOH)]D[Phe(3-CF3)][Bip(4'-COOH)][Bip][Orn][NMeA][dL][Dab][Cha]V[Orn]C[Dab]-NH2; thioether N-14) were, in that order, 0.09 µM and 0.2 µM.
The like results for `CC(C)C[C@@H]1NC(=O)[C@H](Cc2c[nH]c3ccccc23)NC(=O)[C@H](CC(N)=O)NC(=O)[C@H](Cc2cccc(OCC(=O)O)c2)NC(=O)[C@H](Cc2ccccc2)NC(=O)CSC[C@@H](C(=O)NCC(N)=O)NC(=O)[C@H](CO)NC(=O)[C@H](C(C)C)NC(=O)[C@H](CC(C)C)NC(=O)[C@H](CC(N)=O)NC(=O)[C@@H](CC(C)C)NC(=O)[C@H](C)N(C)C(=O)[C@H](C(C)C)NC(=O)[C@H](Cc2ccc(-c3ccccc3)cc2)NC1=O` [Example 5032] ({CH2CO}-F[Phe(3-OCH2COOH)]NWL[Bip]V[NMeA][dL]NLVSCG-NH2; thioether N-14) were, in that order, 0.0987 µM and 0.108 µM.
Taken in the same sequence, the figures for `Cc1cccc(C[C@@H]2NC(=O)[C@H](CC(=O)O)NC(=O)[C@H](Cc3ccc(OCC(=O)O)cc3)NC(=O)[C@H](CN3CCOCC3)NC(=O)CSC[C@@H](C(=O)N[C@@H](CCN)C(N)=O)NC(=O)[C@H](CCCN)NC(=O)[C@H](C(C)C)NC(=O)[C@H](Cc3ccccn3)NC(=O)[C@H](CCN)NC(=O)[C@@H](CC(C)C)NC(=O)[C@H](C)N(C)C(=O)[C@H](CCC(N)=O)NC(=O)[C@H](Cc3ccc(-c4ccccc4)cc3)NC(=O)[C@H](Cc3ccc(C(=O)O)cc3)NC2=O)c1` [Example 5038] ({CH2CO}-[Ala(morpholin-4-yl)]Y(Carboxymethyl)D[Phe(3-Me)][Phe(4-COOH)][Bip]Q[NMeA][dL][Dab][2Pal]V[Orn]C[Dab]-NH2; thioether N-14) were 0.0425 µM and 0.0171 µM.
Consider `CC(=O)Nc1ccc(-c2ccc(C[C@@H]3NC(=O)[C@H](Cc4cccc(C(F)(F)F)c4)NC(=O)[C@H](CC(=O)O)NC(=O)[C@H](Cc4ccc(-c5ccc(C(=O)O)cc5)cc4)NC(=O)[C@H](Cc4ccc(OCC(=O)O)cc4)NC(=O)CSC[C@@H](C(=O)N[C@@H](CCN)C(N)=O)NC(=O)[C@H](CCC(=O)O)NC(=O)[C@H](C(C)C)NC(=O)[C@H](CC4CCCCC4)NC(=O)[C@H](CCN)NC(=O)[C@@H](CC(C)C)NC(=O)[C@H](C)N(C)C(=O)[C@H](CCCN)NC(=O)[C@H](Cc4ccc(-c5ccccc5)cc4)NC3=O)cc2)cc1` [Example 5084] ({CH2CO}-Y(Carboxymethyl)[Bip(4'-COOH)]D[Phe(3-CF3)][Bip(4'-NHAc)][Bip][Orn][NMeA][dL][Dab][Cha]VEC[Dab]-NH2; thioether N-14), for which the IC50 in test [1] (μM, read-out: CBA Method 1 μM) turned out to be 0.0243 µM; in test [2] (setting [3]), 0.0332 µM.
